# Where two headings read alike, the source gives them in different places.
# Assays:
# [1] = Bioavailability after single dose: sublingual tablets (Examples I-III) versus conventional oral tablets, crossed randomized studies; conditions: for AUC(0-inf) / AUC(0-t) / Cmax / Tmax / concentration / concentration at 0 min / concentration at 20 min / concentration at 40 min / concentration at 1 h / concentration at 2 h / concentration at 2.5 h / concentration at 4 h / concentration at 6 h / concentration at 8 h / concentration at 10 h / concentration at 12 h / concentration at 24 h: male, human, plasma; for AUC and Cmax, sublingual versus oral: sublingual versus conventional oral tablets
# Experimental: Three studies were carried out, each of them with eight healthy volunteers of the male sex, recruited after information on the nature and characteristics of the principles included in the scope of the study. Each study, composed of two periods of treatment, was carried out according to a crossed and randomized scheme. All individuals received the previously established dose of the active ingredient in the form of conventional oral tablets and sublingual tablets, with a period of detoxication of, at least, seven days between the first and the following administration, according to a previously established randomized list. The sublingual tablets were placed under the tongue until complete dissolution, in correspondence with the venous plexus, while the conventional oral tablets were swallowed unbroken with 150 ml of mineral water. Within the intervals of 0-20-40 minutes, 1-1,5-2-2,5-3-3,5-4-6-8-10-[…] and 24 hours after the treatment, 5 ml of blood were collected.
# [2] = cited from earlier work; for plasmatic concentration peak: 2 mg tablets
Compound,AUC(0-inf) [1] [ng·h/mL],AUC(0-t) [1] [ng·h/mL],Cmax [1] [ng/mL],Tmax [1] [min],concentration ([1]; other: sublingual) [ng/mL],concentration at 0 min ([1]; other: sublingual) [ng/mL],concentration at 20 min ([1]; other: sublingual) [ng/mL],concentration at 40 min ([1]; other: sublingual) [ng/mL],concentration at 1 h ([1]; other: sublingual) [ng/mL],concentration at 2 h ([1]; other: sublingual) [ng/mL],concentration at 2.5 h ([1]; other: sublingual) [ng/mL],concentration at 4 h ([1]; other: sublingual) [ng/mL],concentration at 6 h ([1]; other: sublingual) [ng/mL],concentration at 8 h ([1]; other: sublingual) [ng/mL],concentration at 10 h ([1]; other: sublingual) [ng/mL],concentration at 12 h ([1]; other: sublingual) [ng/mL],concentration at 24 h ([1]; other: sublingual) [ng/mL],Tmax ([1]; other: sublingual versus oral) [min],AUC(0-inf) ([1]; po) [ng·h/mL],AUC(0-t) ([1]; po) [ng·h/mL],also measured
"O=C1CN=C(c2ccccn2)c2cc(Br)ccc2N1 [BROMAZEPAN, bromazepam]",1900 ± 326,1160 ± 102,120 ± 12.1,45 ± 9,67.9 ± 6.1,0,80.8 ± 11.3,109 ± 22.1,110 ± 15.2,84 ± 5.7,74.2 ± 5.7,63.4 ± 5.5,57.1 ± 5,49.4 ± 7,44.8 ± 6.2,38.8 ± 5.6,33.5 ± 6.1,~30,1760 ± 223,1130 ± 60.2,"Cmax ([1]; po): 125 ± 9.81 ng/mL; Tmax ([1]; po): 75 ± 22.8 min; concentration ([1]; po): 70.2 ± 6.8 ng/mL; concentration at 20 min ([1]; po): 69 ± 10.1 ng/mL; concentration at 40 min ([1]; po): 91.7 ± 5.6 ng/mL; concentration at 1 h ([1]; po): 117 ± 14.9 ng/mL; concentration at 2 h ([1]; po): 91.6 ± 9.7 ng/mL; concentration at 2.5 h ([1]; po): 77.2 ± 5.9 ng/mL; concentration at 4 h ([1]; po): 63.1 ± 6.9 ng/mL; concentration at 6 h ([1]; po): 53.4 ± 4.8 ng/mL; concentration at 8 h ([1]; po): 49.1 ± 4.4 ng/mL; concentration at 10 h ([1]; po): 42.7 ± 3.1 ng/mL; concentration at 12 h ([1]; po): 37.9 ± 3 ng/mL; concentration at 24 h ([1]; po): 30.2 ± 3.8 ng/mL; AUC and Cmax, sublingual versus oral [1]: comparable"
"O=C1Nc2ccc(Cl)cc2C(c2ccccc2Cl)=NC1O (stereo not drawn) [LORAZEPAM, lorazepam]",621 ± 70.1,452 ± 53,56.9 ± 8.41,42.6 ± 720,28.3 ± 4.2,0,44.5 ± 5.9,56.5 ± 8.5,47.9 ± 8.5,37.2 ± 7.7,32.2 ± 4.4,25.6 ± 5,22.8 ± 4.61,9.6 ± 3.7,17.6 ± 2.6,14.5 ± 2.3,10.3 ± 1.1,~30,656 ± 143,454 ± 74.1,"Cmax ([1]; po): 54.4 ± 4.98 ng/mL; Tmax ([1]; po): 91.2 ± 29.4 min; concentration ([1]; po): 33.4 ± 10.3 ng/mL; concentration at 0 min ([1]; po): 0 ng/mL; concentration at 20 min ([1]; po): 30.8 ± 9.4 ng/mL; concentration at 40 min ([1]; po): 41 ± 10.4 ng/mL; concentration at 1 h ([1]; po): 46.1 ± 7.9 ng/mL; concentration at 2 h ([1]; po): 47.3 ± 9.1 ng/mL; concentration at 2.5 h ([1]; po): 39 ± 10.2 ng/mL; concentration at 4 h ([1]; po): 28.2 ± 8.4 ng/mL; concentration at 6 h ([1]; po): 22.6 ± 5.7 ng/mL; concentration at 8 h ([1]; po): 19.6 ± 4.8 ng/mL; concentration at 10 h ([1]; po): 16.6 ± 3.5 ng/mL; concentration at 12 h ([1]; po): 13.5 ± 2.3 ng/mL; concentration at 24 h ([1]; po): 10.6 ± 1.7 ng/mL; AUC and Cmax, sublingual versus oral [1]: comparable; plasmatic concentration peak ([2]; after oral administration): ~17 ng/mL; plasmatic concentration peak ([2]; after sublingual administration): about 25 ng/ml; absorption of sublingual formulation compared to oral tablets and intramuscular formulation ([2]; during the first 60 minutes, 2 mg): higher"
"CN1C(=O)CN=C(c2ccccc2)c2cc(Cl)ccc21 [DIAZEPAM, diazepam]",–,–,–,–,–,–,–,–,–,–,–,–,–,–,–,–,–,–,–,–,hematological rates after sublingual administration in relation to oral administration ([1]; first hour): definitely higher

# From patent publication US8168625B2, “Pharmaceutical composition based on agonist of benzodiazepine” (Sigma Pharma Ltda., priority 2003, dated 2012)
